# Key:
# [1] = Melting Time in 0.2 N aqueous sodium hydroxide at 60° C.; conditions: 0.2 N NaOH
# Method: An emulsion for a green-sensitive layer of a color negative light-sensitivematerial obtained in the same manner as described in Example 1 was divided into four portions, a first portion was used as a control. To the other three portions were added an aqueous solution of Compound 1, 1,3,5-tris(β-vinylsulfonylpropyl)hexahydro-s-triazine (Compound C), bis(vinylsulfonylmethyl) ether (Compound D) in an amount of 1.5 g per 100 g of dry gelatin, respectively. Each emulsion was coated on a subbed polyethylene terephthalate support at a thickness of 5μ and dried.
# The strength of the layer was determined using the two methods described below with samples stored at 25° C., 65% RH for 2 days or for 20 days and a sample heat treated at 50° C., 80% RH for 2 days.
# A sample strip was immersed in a 0.2 N aqueous solution of sodium hydroxide at 60° C. and the time (min) when the emulsion layer began to melt was measured.
# [2] = Strength of gelatin layer surface; conditions: 65% RH, 5×10^-5 mol per g of dry gelatin
# Method: A sample was immersed in water at 25° C. for 5 minutes. A pin equipped with a steel ball having a radius of 0.2 mm on the point thereof was pressed on the surface of the sample and the pin was moved at a rate of 5 mm per second on the surface of the sample while the load applied to the pin was continuously varied in the range of 0 to 100 g. The load (g) at which a scratch occurred on the surface was measured.
# A 5% solution of gelatin was divided into four portions, a first portion was used as a control and to the other three portions were added Compound 1 of the present invention, Compound B and Compound E in an amount of 5×10^-5 mol per g of dry gelatin, respectively. Each gelatin solution was coated on a subbed polyester film support and dried.
# After storing the samples obtained under conditions of 25° C., 65% RH, the strength of the gelatin layer surface thereof was determined.
# [3] = Photographic properties (fog, relative sensitivity, maximum density of the magenta dye image); conditions: 1.5 g per 100 g of dry gelatin, Table 1; for Relative Sensitivity: control = 100; for Maximum Density: magenta dye image
# Method: A silver iodobromide emulsion containing 6.0 mol % of silver iodide was optimally ripened using a sulfur-containing sensitizer and a gold sensitizer to prepare a high speed negative emulsion. To the emulsion were added anhydro-5,5'-tetrachloro-1,1'-diethyl-3,3'-di-(3-sulfopropyl)-benzimidazolocarbocyanine hydroxide as a spectral sensitizer, 4-hydroxy-6-methyl-1,3,3a,7-tetrazaindene as a stabilizer, and 1-(2,4,6-trichlorophenyl)-3-[3-(2,4-di-tert-amylphenoxyacetamide)benzamido]-5-pyrazolone (which was dissolved in tricresyl phosphate and ethyl acetate and dispersed in gelatin with sodium dodecylbenzenesulfonate) as a magenta color forming coupler to prepare an emulsion for a green-sensitivelayer of a color negative light-sensitive material. The emulsion thus-obtained was divided into four portions and a first portion was used as control. To the other three portions were added an aqueous solution of Compound 1 of the present invention, dimethylol urea (Compound A) and mucochloric acid (Compound B), respectively, in an amount of 1.5 g per 100 g of dry gelatin. Each emulsion was coated on a subbed cellulose triacetate support in a coated coupler amount of 1.5×10^-3 mol/m^2 and dried.
# These samples were exposed to green light using an NSG II type sensitometer and processed according to the color processing procedure as described in Example 1 of Japanese patent application (OPI) No. 51940/1976 as follows.
# The density of the magenta dye image thus-obtained was measured and fog, relative sensitivity and maximum density were determined.
Molecule,"Melting Time ([1]; 2 Days Heated, 50° C., 80% RH)","Melting Time ([1]; 2 Days at 25° C., 65% RH)","Melting Time ([1]; 20 Days at 25° C., 65% RH)",Strength of Layer Surface ([2]; 2 Days at 25° C.),Strength of Layer Surface ([2]; 7 Days at 25° C.),Strength of Layer Surface ([2]; 14 Days at 25° C.),Strength of Layer Surface ([2]; 21 Days at 25° C.),Fog [3],Relative Sensitivity [3],Maximum Density [3]
"1,3,5-tris(β-vinylsulfonylpropyl)hexahydro-s-triazine [Compound C]",3 min,1 min,2.5 min,–,–,–,–,–,–,–
"C=CS(=O)(=O)CC(O)CS(=O)(=O)C=C [Compound 1, 1,3-bis(Vinylsulfonyl)-2-propanol]",30 min,13.5 min,27 min,48 g,56 g,58 g,60 g,0.10,92,2.80
"O=C/C(Cl)=C(/Cl)C(=O)O [Compound B, mucochloric acid]",–,–,–,21 g,36 g,45 g,52 g,0.14,85,2.70
"C=CS(=O)(=O)CCS(=O)(=O)C=C [Compound E, 1,2-bis(vinylsulfonyl)ethane]",–,–,–,18 g,25 g,32 g,36 g,–,–,–
